Results reported in the kinase profiling compilation of Christmann-Franck et al. (2016).

Legend:
Assay in all cases: radiometric filter-binding kinase assay
RPS6KA5 KD1 KD2 (human) = RPS6KA5 KD1 KD2 (human) (UniProt O75582)
SRC (human) = SRC (human) (UniProt P12931)
PRKCA (human) = PRKCA (human) (UniProt P17252)
HIPK1 (human) = HIPK1 (human) (UniProt Q86Z02)
NUAK1 (human) = NUAK1 (human) (UniProt O60285)
[1] = system: SGK1 (human), O00141 [S422D]
MARK4 (human) = MARK4 (human) (UniProt Q96L34)
TAOK1 (human) = TAOK1 (human) (UniProt Q7L7X3)
PLK1 (human) = PLK1 (human) (UniProt P53350)
GCK (human) = GCK (human) (UniProt Q12851)
CDK2 CCNA2 (human) = CDK2 CCNA2 (human) (UniProt P20248+P24941)
EEF2K (human) = EEF2K (human) (UniProt O00418)
FLT1 (human) = FLT1 (human) (UniProt P17948)
MAPK3 (human) = MAPK3 (human) (UniProt P27361)
ERBB4 (human) = ERBB4 (human) (UniProt Q15303)
CLK2 (human) = CLK2 (human) (UniProt P49760)
MAP3K5 (human) = MAP3K5 (human) (UniProt Q99683)
MAPK1 (human) = MAPK1 (human) (UniProt P28482)
MAP3K1 (human) = MAP3K1 (human) (UniProt Q13233)
PAK6 (human) = PAK6 (human) (UniProt Q9NQU5)
PAK6 (human), sequence (Q9NQU5 whole entry, looked up): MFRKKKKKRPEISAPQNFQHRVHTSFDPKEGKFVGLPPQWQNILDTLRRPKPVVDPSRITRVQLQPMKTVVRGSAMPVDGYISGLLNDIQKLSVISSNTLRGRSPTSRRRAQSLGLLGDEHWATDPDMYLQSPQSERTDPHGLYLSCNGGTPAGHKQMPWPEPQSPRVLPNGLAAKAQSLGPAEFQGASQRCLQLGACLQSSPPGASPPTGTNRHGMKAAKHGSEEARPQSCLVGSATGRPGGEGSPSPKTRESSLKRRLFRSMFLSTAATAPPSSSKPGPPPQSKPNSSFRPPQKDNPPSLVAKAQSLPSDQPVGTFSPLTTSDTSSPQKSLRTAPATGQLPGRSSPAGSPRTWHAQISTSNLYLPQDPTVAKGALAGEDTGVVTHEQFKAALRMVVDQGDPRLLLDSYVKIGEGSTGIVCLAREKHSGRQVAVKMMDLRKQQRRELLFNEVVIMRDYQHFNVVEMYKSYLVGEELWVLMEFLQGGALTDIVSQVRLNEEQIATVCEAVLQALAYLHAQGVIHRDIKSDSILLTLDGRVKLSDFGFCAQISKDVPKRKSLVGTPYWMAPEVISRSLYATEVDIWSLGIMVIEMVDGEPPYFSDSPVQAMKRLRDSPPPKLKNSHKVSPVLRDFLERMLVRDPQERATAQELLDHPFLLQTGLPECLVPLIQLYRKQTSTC

NTRK1 (human) = NTRK1 (human) (UniProt P04629)
DAPK1 (human) = DAPK1 (human) (UniProt P53355)
CHEK2 (human) = CHEK2 (human) (UniProt O96017)
JAK2 JH1 JH2 (human) = JAK2 JH1 JH2 (human) (UniProt O60674)
JAK2 JH1 JH2 (human), sequence (O60674 whole entry, looked up): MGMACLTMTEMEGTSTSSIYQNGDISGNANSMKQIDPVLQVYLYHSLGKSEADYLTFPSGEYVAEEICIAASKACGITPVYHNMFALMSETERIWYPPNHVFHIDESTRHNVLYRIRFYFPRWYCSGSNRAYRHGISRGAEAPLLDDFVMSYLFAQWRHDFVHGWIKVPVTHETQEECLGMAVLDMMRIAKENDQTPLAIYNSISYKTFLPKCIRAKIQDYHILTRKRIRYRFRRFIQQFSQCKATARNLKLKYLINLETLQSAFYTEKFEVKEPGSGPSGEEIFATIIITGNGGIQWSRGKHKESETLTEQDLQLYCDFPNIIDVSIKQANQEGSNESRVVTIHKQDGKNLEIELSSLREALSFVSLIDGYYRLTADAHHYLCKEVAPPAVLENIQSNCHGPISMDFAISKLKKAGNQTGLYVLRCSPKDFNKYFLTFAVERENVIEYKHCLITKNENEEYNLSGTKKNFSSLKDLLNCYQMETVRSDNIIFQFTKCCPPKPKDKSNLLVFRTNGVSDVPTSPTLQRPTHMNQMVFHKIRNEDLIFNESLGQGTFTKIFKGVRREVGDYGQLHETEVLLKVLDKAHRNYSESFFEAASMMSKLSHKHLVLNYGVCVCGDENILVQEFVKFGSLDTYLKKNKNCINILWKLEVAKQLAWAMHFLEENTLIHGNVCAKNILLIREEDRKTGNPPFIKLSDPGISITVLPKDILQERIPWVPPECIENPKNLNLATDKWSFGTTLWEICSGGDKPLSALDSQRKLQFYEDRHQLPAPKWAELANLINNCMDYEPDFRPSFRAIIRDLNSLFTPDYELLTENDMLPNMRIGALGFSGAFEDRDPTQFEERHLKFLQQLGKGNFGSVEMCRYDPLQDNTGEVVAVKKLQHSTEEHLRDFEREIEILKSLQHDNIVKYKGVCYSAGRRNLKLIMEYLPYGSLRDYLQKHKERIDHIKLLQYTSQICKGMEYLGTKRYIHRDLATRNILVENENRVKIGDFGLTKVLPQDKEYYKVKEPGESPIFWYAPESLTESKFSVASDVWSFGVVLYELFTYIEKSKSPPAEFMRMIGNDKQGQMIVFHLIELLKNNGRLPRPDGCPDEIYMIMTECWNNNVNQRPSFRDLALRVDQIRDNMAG

EPHB4 (human) = EPHB4 (human) (UniProt P54760)
CHEK1 (human) = CHEK1 (human) (UniProt O14757)
RPS6KA3 KD1 KD2 (human) = RPS6KA3 KD1 KD2 (human) (UniProt P51812)
MST4 (human) = MST4 (human) (UniProt Q9P289)
RPS6KA1 KD1 KD2 (human) = RPS6KA1 KD1 KD2 (human) (UniProt Q15418)
RPS6KA1 KD1 KD2 (human), sequence (Q15418 whole entry, looked up): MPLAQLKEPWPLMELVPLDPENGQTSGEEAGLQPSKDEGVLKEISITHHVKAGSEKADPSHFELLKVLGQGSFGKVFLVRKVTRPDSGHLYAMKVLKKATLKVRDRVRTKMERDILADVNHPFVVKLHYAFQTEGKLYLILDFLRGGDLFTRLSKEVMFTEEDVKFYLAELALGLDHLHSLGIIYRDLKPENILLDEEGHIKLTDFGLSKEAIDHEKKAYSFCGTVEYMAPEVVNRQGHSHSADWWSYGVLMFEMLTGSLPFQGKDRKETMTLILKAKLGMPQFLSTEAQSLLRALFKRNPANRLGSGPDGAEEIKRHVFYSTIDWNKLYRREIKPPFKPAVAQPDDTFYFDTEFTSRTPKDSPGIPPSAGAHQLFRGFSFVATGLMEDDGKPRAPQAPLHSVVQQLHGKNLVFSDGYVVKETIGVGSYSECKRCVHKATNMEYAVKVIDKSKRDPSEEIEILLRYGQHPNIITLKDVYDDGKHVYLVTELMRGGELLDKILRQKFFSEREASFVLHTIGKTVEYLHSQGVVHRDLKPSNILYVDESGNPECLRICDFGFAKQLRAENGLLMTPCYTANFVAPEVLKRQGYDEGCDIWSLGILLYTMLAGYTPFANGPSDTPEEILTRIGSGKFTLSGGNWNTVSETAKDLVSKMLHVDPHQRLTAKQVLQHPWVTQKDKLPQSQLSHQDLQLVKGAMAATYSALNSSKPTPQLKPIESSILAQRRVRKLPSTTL

BRSK2 (human) = BRSK2 (human) (UniProt Q8IWQ3)
PRKCZ (human) = PRKCZ (human) (UniProt Q05513)
MARK3 (human) = MARK3 (human) (UniProt P27448)
MARK3 (human), sequence (P27448 whole entry, looked up): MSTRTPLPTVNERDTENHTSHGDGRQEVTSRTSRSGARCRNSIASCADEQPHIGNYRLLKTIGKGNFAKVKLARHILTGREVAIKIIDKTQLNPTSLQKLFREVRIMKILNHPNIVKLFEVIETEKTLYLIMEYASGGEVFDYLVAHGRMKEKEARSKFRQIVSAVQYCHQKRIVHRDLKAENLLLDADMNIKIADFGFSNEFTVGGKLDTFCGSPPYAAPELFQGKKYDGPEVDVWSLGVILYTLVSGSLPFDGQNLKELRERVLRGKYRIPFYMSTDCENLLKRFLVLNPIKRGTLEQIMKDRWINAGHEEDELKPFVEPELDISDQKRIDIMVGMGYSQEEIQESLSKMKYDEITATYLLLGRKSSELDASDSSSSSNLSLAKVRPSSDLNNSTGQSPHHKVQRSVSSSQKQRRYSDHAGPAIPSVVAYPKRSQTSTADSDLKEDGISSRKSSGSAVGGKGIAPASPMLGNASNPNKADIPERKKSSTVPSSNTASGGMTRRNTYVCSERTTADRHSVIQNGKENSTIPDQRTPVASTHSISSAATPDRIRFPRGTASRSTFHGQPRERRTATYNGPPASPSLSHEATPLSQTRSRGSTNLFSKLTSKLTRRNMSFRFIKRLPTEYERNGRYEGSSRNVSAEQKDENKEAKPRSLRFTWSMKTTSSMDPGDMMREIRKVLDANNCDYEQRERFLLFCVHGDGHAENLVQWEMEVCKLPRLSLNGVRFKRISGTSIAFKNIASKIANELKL

AURKA (human) = AURKA (human) (UniProt O14965)
AURKA (human), sequence (O14965 whole entry, looked up): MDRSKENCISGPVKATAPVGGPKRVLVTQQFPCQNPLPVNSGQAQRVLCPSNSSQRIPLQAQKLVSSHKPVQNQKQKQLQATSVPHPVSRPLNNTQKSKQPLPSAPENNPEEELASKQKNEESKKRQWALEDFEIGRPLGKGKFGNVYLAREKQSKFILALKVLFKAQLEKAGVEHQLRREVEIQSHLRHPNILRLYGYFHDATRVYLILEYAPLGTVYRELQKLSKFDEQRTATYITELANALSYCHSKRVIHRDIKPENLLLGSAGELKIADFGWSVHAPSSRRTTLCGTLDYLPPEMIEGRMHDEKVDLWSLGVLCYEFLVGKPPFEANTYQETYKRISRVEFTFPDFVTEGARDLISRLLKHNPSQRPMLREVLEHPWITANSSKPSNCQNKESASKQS

STK3 (human) = STK3 (human) (UniProt Q13188)
STK3 (human), sequence (Q13188 whole entry, looked up): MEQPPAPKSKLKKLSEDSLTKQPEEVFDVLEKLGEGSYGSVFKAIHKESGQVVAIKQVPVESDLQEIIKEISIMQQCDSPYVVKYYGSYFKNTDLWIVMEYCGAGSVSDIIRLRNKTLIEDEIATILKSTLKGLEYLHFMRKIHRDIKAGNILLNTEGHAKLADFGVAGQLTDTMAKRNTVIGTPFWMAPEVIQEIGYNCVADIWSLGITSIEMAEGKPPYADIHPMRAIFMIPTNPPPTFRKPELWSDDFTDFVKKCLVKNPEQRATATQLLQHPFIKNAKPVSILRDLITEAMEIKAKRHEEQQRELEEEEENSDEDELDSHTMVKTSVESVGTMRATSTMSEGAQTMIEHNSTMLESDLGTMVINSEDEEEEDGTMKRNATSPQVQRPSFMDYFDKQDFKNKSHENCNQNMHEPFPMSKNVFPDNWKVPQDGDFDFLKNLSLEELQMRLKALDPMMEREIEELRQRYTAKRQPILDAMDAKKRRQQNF

HIPK3 (human) = HIPK3 (human) (UniProt Q9H422)

NUAK1 (human), sequence (O60285 whole entry, looked up): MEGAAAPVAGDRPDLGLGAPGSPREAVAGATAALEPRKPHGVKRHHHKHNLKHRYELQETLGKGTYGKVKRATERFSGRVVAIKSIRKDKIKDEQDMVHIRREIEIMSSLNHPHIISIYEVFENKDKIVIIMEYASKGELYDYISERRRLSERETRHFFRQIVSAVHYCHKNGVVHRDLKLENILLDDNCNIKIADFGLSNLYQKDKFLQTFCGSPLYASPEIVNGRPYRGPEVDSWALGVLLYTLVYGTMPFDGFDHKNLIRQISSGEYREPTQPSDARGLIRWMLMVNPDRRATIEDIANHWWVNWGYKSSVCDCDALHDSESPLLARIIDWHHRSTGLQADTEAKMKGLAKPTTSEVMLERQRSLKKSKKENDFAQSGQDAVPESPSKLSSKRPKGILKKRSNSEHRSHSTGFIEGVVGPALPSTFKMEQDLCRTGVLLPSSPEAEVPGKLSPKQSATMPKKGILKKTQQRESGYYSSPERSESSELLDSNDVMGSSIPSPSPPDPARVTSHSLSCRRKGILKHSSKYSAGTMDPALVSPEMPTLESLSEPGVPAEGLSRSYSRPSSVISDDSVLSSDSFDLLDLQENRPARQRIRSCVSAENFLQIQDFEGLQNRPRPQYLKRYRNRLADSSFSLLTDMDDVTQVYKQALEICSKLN

**Q.** With `FC(F)(F)c1ccc(-c2ccc(Oc3cncc4sc(-c5nn[nH]n5)cc34)cc2)cc1` as the compound, how does the residual activity (RPS6KA5 KD1 KD2 (human); compound 1.0 µM) read?
**A.** Its residual activity is 90%.

**Q.** What about the residual activity (RPS6KA5 KD1 KD2 (human); compound 10.0 µM) of the same compound?
**A.** Its residual activity is 22%.

**Q.** What about the residual activity (SRC (human); compound 1.0 µM) of the same compound?
**A.** Its residual activity is 108%.

**Q.** What about the residual activity (SRC (human); compound 10.0 µM) of the same compound?
**A.** Its residual activity is 95%.

**Q.** What about the residual activity (PRKCA (human); compound 1.0 µM) of the same compound?
**A.** Its residual activity is 107%.

**Q.** What about the residual activity (PRKCA (human); compound 10.0 µM) of the same compound?
**A.** Its residual activity is 59%.

**Q.** What about the residual activity (HIPK1 (human); compound 1.0 µM) of the same compound?
**A.** The residual activity was 65%.

**Q.** And the residual activity (HIPK1 (human); compound 10.0 µM)?
**A.** Its residual activity is 12%.

**Q.** What about the residual activity (NUAK1 (human); compound 1.0 µM) of the same compound?
**A.** Its residual activity is 128%.

**Q.** And the residual activity (NUAK1 (human); compound 10.0 µM)?
**A.** Its residual activity is 88%.

**Q.** What about the residual activity ([1]; compound 1.0 µM) of the same compound?
**A.** The residual activity was 93%.

**Q.** What about the residual activity ([1]; compound 10.0 µM) of the same compound?
**A.** Its residual activity is 39%.

**Q.** What about the residual activity (MARK4 (human); compound 1.0 µM) of the same compound?
**A.** The residual activity was 106%.

**Q.** What about the residual activity (MARK4 (human); compound 10.0 µM) of the same compound?
**A.** The residual activity was 97%.

**Q.** And the residual activity (TAOK1 (human); compound 1.0 µM)?
**A.** Its residual activity is 65%.

**Q.** What about the residual activity (TAOK1 (human); compound 10.0 µM) of the same compound?
**A.** The residual activity was 30%.

**Q.** And the residual activity (PLK1 (human); compound 1.0 µM)?
**A.** Its residual activity is 83%.

**Q.** What about the residual activity (PLK1 (human); compound 10.0 µM) of the same compound?
**A.** The residual activity was 16%.

**Q.** What about the residual activity (GCK (human); compound 1.0 µM) of the same compound?
**A.** The residual activity was 68%.

**Q.** And the residual activity (GCK (human); compound 10.0 µM)?
**A.** The residual activity was 17%.

**Q.** What about the residual activity (CDK2 CCNA2 (human); compound 1.0 µM) of the same compound?
**A.** The residual activity was 79%.

**Q.** And the residual activity (CDK2 CCNA2 (human); compound 10.0 µM)?
**A.** Its residual activity is 47%.

**Q.** And the residual activity (EEF2K (human); compound 1.0 µM)?
**A.** The residual activity was 106%.

**Q.** And the residual activity (EEF2K (human); compound 10.0 µM)?
**A.** Its residual activity is 80%.

**Q.** And the residual activity (FLT1 (human); compound 1.0 µM)?
**A.** The residual activity was 96%.

**Q.** And the residual activity (FLT1 (human); compound 10.0 µM)?
**A.** Its residual activity is 29%.

**Q.** What about the residual activity (MAPK3 (human); compound 1.0 µM) of the same compound?
**A.** Its residual activity is 101%.

**Q.** And the residual activity (MAPK3 (human); compound 10.0 µM)?
**A.** The residual activity was 82%.

**Q.** What about the residual activity (ERBB4 (human); compound 1.0 µM) of the same compound?
**A.** Its residual activity is 94%.

**Q.** What about the residual activity (ERBB4 (human); compound 10.0 µM) of the same compound?
**A.** The residual activity was 89%.

**Q.** And the residual activity (CLK2 (human); compound 1.0 µM)?
**A.** Its residual activity is 73%.

**Q.** What about the residual activity (CLK2 (human); compound 10.0 µM) of the same compound?
**A.** Its residual activity is 14%.

**Q.** And the residual activity (MAP3K5 (human); compound 1.0 µM)?
**A.** Its residual activity is 95%.

**Q.** What about the residual activity (MAP3K5 (human); compound 10.0 µM) of the same compound?
**A.** The residual activity was 72%.

**Q.** What about the residual activity (MAPK1 (human); compound 1.0 µM) of the same compound?
**A.** The residual activity was 114%.

**Q.** What about the residual activity (MAPK1 (human); compound 10.0 µM) of the same compound?
**A.** Its residual activity is 95%.

**Q.** And the residual activity (MAP3K1 (human); compound 1.0 µM)?
**A.** Its residual activity is 109%.

**Q.** What about the residual activity (MAP3K1 (human); compound 10.0 µM) of the same compound?
**A.** Its residual activity is 93%.

**Q.** What about the residual activity (PAK6 (human); compound 1.0 µM) of the same compound?
**A.** Its residual activity is 121%.

**Q.** What about the residual activity (PAK6 (human); compound 10.0 µM) of the same compound?
**A.** The residual activity was 110%.

**Q.** And the residual activity (NTRK1 (human); compound 1.0 µM)?
**A.** The residual activity was 104%.

**Q.** And the residual activity (NTRK1 (human); compound 10.0 µM)?
**A.** The residual activity was 71%.

**Q.** And the residual activity (DAPK1 (human); compound 1.0 µM)?
**A.** Its residual activity is 47%.

**Q.** And the residual activity (DAPK1 (human); compound 10.0 µM)?
**A.** Its residual activity is 17%.

**Q.** What about the residual activity (CHEK2 (human); compound 1.0 µM) of the same compound?
**A.** The residual activity was 102%.

**Q.** What about the residual activity (CHEK2 (human); compound 10.0 µM) of the same compound?
**A.** The residual activity was 37%.

**Q.** What about the residual activity (JAK2 JH1 JH2 (human); compound 1.0 µM) of the same compound?
**A.** The residual activity was 99%.

**Q.** What about the residual activity (JAK2 JH1 JH2 (human); compound 10.0 µM) of the same compound?
**A.** Its residual activity is 46%.

**Q.** What about the residual activity (EPHB4 (human); compound 1.0 µM) of the same compound?
**A.** Its residual activity is 109%.

**Q.** What about the residual activity (EPHB4 (human); compound 10.0 µM) of the same compound?
**A.** The residual activity was 110%.

**Q.** And the residual activity (CHEK1 (human); compound 1.0 µM)?
**A.** Its residual activity is 118%.

**Q.** What about the residual activity (CHEK1 (human); compound 10.0 µM) of the same compound?
**A.** Its residual activity is 65%.

**Q.** What about the residual activity (RPS6KA3 KD1 KD2 (human); compound 1.0 µM) of the same compound?
**A.** Its residual activity is 132%.

**Q.** What about the residual activity (RPS6KA3 KD1 KD2 (human); compound 10.0 µM) of the same compound?
**A.** The residual activity was 88%.

**Q.** What about the residual activity (MST4 (human); compound 1.0 µM) of the same compound?
**A.** The residual activity was 118%.

**Q.** And the residual activity (MST4 (human); compound 10.0 µM)?
**A.** The residual activity was 71%.

**Q.** What about the residual activity (RPS6KA1 KD1 KD2 (human); compound 1.0 µM) of the same compound?
**A.** Its residual activity is 122%.

**Q.** What about the residual activity (RPS6KA1 KD1 KD2 (human); compound 10.0 µM) of the same compound?
**A.** The residual activity was 57%.

**Q.** And the residual activity (BRSK2 (human); compound 1.0 µM)?
**A.** Its residual activity is 115%.

**Q.** What about the residual activity (BRSK2 (human); compound 10.0 µM) of the same compound?
**A.** The residual activity was 105%.

**Q.** What about the residual activity (PRKCZ (human); compound 1.0 µM) of the same compound?
**A.** Its residual activity is 126%.

**Q.** And the residual activity (PRKCZ (human); compound 10.0 µM)?
**A.** The residual activity was 60%.

**Q.** And the residual activity (MARK3 (human); compound 1.0 µM)?
**A.** Its residual activity is 100%.

**Q.** And the residual activity (MARK3 (human); compound 10.0 µM)?
**A.** Its residual activity is 51%.

**Q.** What about the residual activity (AURKA (human); compound 1.0 µM) of the same compound?
**A.** The residual activity was 108%.

**Q.** What about the residual activity (AURKA (human); compound 10.0 µM) of the same compound?
**A.** Its residual activity is 63%.

**Q.** And the residual activity (STK3 (human); compound 1.0 µM)?
**A.** Its residual activity is 93%.

**Q.** And the residual activity (STK3 (human); compound 10.0 µM)?
**A.** Its residual activity is 76%.

**Q.** What about the residual activity (HIPK3 (human); compound 1.0 µM) of the same compound?
**A.** The residual activity was 63%.

**Q.** What about the residual activity (HIPK3 (human); compound 10.0 µM) of the same compound?
**A.** Its residual activity is 10%.
